Experimental data from ChEMBL document CHEMBL1148604 (J Med Chem, 2006).
In brackets after ≈: the same amount, converted by molar mass. Activity calls are given as the source filed them. The rule behind the calls is not given here.

Key:
[1] = target: T1, 3-oxoacyl-[acyl-carrier-protein] synthase 1 (Mycobacterium tuberculosis) (UniProt P9WQD9); assay: Inhibitory activity against KasA from Mycobacterium tuberculosis H37Rv at 100 uM
T1 sequence (whole entry): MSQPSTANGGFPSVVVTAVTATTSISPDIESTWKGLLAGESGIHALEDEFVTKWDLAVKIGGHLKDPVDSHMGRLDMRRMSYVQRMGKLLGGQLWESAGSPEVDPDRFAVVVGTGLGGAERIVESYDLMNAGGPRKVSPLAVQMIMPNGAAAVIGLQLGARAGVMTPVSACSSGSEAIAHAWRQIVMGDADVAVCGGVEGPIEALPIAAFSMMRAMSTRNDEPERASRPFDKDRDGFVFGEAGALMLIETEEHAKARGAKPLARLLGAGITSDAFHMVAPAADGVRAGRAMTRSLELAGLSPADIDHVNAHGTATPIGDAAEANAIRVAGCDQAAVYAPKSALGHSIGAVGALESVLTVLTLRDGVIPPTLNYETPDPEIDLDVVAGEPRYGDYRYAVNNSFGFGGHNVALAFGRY

Escherichia coli = assay: Inhibitory activity against Escherichia coli ANSI; assay type: functional
[2] = target: T2, 3-oxoacyl-[acyl-carrier-protein] synthase 2 (Mycobacterium tuberculosis) (UniProt P9WQD7); assay: Inhibitory activity against KasB from Mycobacterium tuberculosis H37Rv at 100 uM
T2 sequence (whole entry): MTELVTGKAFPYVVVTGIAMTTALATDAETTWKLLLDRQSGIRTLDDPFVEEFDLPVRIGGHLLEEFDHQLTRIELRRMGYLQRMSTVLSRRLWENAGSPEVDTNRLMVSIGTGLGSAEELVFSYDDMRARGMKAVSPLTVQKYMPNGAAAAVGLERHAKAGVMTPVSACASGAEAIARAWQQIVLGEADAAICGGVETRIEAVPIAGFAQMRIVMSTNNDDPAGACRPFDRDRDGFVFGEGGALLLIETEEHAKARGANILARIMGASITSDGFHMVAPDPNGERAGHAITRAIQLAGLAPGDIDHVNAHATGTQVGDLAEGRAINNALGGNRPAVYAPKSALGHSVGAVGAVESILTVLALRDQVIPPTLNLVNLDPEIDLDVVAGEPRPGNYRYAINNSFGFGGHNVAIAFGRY

[3] = target: T3, Mycobacterial beta-ketoacyl-[acyl-carrier-protein] synthase III (Mycobacterium tuberculosis) (UniProt P9WNG3); assay: Inhibitory activity against FabH from Mycobacterium tuberculosis H37Rv at 100 uM
T3 sequence (whole entry): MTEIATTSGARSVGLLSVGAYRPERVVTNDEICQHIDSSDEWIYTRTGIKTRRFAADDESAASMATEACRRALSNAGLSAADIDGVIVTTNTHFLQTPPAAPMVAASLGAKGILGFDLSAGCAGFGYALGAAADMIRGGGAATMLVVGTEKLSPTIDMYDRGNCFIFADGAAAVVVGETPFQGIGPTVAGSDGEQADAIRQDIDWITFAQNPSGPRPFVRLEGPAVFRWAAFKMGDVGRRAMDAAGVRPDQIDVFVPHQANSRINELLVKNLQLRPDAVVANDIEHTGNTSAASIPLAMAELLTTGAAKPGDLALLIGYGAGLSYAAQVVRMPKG

[4] = system: Mycobacterium tuberculosis; assay: Inhibitory activity against Mycobacterium tuberculosis H37Rv; assay type: functional
[5] = target: T4, 3-oxoacyl-[acyl-carrier-protein] synthase 3 (Escherichia coli) (UniProt C3TDZ2); assay: Inhibitory activity against FabH from Escherichia coli ANSI at 100 uM
T4 sequence (whole entry): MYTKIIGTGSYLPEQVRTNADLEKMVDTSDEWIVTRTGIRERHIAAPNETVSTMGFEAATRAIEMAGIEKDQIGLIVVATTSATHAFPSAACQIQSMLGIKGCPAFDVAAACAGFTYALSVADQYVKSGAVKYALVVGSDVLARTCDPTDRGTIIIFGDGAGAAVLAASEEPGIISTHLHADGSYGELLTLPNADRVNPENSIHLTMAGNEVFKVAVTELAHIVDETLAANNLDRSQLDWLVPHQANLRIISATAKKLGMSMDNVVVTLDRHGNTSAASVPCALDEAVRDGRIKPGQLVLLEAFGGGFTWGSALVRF

wild-type apo-KasA = wild-type apo-KasA (Mycobacterium tuberculosis, UniProt P9WQD9); assay: Inhibitory activity against KasA from Mycobacterium tuberculosis H37Rv
[6] = target: T5, 3-oxoacyl-[acyl-carrier-protein] synthase 1 (Escherichia coli K-12) (UniProt P0A953); assay: Inhibitory activity against FabB from Escherichia coli ANSI at 100 uM
T5 sequence (whole entry): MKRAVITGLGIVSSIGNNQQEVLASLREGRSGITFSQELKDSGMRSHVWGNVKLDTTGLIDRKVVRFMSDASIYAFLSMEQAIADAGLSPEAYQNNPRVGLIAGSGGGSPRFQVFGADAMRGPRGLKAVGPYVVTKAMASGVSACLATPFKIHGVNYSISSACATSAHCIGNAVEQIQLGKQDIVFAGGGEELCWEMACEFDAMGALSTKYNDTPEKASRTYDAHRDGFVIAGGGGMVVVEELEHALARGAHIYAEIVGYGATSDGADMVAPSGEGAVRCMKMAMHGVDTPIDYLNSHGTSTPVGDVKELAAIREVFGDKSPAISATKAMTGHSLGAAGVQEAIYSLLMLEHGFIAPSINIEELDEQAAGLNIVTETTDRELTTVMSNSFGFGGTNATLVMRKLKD

[7] = target: T6, 3-oxoacyl-[acyl-carrier-protein] synthase 3 (Escherichia coli, UniProt C3TDZ2); assay: Inhibitory activity against FabH from Escherichia coli ANSI
T6 sequence (C3TDZ2 whole entry): T4 sequence (whole entry)

Fatty acid synthase [8] = target: T7, Fatty acid synthase (Homo sapiens, UniProt P49327); assay: Inhibitory activity against human FAS1 at 100 uM
Target sequence in this assay (P49327 whole entry, looked up): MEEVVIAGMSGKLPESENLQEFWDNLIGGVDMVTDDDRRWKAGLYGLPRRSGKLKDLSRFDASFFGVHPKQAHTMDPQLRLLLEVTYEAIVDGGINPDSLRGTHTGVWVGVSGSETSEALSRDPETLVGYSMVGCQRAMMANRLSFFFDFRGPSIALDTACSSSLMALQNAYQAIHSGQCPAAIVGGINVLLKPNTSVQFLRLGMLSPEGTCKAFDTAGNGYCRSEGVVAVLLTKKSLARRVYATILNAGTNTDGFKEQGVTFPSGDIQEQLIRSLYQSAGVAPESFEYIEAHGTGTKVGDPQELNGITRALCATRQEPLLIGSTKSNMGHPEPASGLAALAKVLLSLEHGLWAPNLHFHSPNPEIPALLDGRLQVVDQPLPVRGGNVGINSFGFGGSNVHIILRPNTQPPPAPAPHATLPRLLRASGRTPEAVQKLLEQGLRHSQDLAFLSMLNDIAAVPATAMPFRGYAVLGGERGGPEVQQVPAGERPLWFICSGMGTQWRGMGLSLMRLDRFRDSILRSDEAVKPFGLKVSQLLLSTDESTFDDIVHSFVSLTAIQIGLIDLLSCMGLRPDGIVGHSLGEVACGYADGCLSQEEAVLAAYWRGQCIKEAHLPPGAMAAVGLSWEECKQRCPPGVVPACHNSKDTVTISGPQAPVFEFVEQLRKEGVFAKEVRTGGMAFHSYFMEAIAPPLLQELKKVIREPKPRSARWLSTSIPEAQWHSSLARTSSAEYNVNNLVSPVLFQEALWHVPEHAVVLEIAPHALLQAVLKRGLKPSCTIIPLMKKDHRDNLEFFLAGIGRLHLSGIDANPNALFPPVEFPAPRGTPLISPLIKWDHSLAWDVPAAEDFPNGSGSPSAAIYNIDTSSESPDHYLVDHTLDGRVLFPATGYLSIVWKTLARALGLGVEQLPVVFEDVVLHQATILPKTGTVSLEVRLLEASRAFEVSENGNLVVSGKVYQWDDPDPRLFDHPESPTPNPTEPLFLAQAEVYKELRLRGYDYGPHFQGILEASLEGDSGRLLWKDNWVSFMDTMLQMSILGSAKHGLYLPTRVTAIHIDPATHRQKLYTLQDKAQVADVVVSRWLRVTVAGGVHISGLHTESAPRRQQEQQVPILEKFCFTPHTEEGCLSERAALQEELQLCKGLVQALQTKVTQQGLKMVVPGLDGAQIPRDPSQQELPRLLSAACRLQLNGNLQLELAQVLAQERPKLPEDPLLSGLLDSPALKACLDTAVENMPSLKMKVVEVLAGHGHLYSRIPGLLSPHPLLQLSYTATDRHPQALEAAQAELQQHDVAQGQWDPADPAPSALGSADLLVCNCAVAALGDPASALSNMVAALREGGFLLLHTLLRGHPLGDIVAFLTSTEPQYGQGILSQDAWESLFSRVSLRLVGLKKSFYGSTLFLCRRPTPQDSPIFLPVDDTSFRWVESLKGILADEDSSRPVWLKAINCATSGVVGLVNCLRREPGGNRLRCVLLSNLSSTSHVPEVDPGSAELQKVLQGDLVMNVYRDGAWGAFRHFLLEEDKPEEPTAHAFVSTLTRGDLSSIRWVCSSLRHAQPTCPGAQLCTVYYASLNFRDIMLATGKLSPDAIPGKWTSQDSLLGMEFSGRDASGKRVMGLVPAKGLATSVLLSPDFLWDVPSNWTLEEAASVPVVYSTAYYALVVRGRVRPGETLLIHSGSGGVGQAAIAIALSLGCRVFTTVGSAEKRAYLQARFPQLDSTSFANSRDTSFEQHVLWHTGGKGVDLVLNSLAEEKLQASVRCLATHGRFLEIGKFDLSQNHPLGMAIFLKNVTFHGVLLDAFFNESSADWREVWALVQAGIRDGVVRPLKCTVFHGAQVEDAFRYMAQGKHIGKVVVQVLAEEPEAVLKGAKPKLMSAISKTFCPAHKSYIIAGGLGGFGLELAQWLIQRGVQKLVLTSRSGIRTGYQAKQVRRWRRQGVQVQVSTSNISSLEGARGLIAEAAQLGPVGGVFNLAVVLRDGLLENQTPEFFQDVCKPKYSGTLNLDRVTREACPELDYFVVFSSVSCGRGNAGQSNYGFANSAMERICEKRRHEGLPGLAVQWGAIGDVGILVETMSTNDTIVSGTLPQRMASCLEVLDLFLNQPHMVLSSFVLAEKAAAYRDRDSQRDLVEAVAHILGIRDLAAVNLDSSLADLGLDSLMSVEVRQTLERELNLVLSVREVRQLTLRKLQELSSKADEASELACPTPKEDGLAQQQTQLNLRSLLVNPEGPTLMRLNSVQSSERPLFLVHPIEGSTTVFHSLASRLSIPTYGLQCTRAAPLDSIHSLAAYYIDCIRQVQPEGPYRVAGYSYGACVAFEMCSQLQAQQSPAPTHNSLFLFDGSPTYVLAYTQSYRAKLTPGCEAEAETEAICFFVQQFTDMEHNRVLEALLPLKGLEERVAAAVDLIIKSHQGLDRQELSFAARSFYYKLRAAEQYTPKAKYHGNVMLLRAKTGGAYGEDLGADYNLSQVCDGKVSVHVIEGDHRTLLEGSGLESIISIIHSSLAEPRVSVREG

[9] = target: T8, Mycobacterial beta-ketoacyl-[acyl-carrier-protein] synthase III (Mycobacterium tuberculosis, UniProt P9WNG3); assay: Inhibitory activity against FabH from Mycobacterium tuberculosis H37Rv
T8 sequence (P9WNG3 whole entry): T3 sequence (whole entry)

[10] = target: T9, 3-oxoacyl-[acyl-carrier-protein] synthase 2 (Mycobacterium tuberculosis, UniProt P9WQD7); assay: Inhibitory activity against KasB from Mycobacterium tuberculosis H37Rv
T9 sequence (P9WQD7 whole entry): T2 sequence (whole entry)

[11] = target: T10, 3-oxoacyl-[acyl-carrier-protein] synthase 1 (Escherichia coli K-12, UniProt P0A953); assay: Inhibitory activity against FabB from Escherichia coli ANSI
T10 sequence (P0A953 whole entry): T5 sequence (whole entry)

Fatty acid synthase [12] = target: T7, Fatty acid synthase; assay: Inhibitory activity against human FAS1
Target sequence in this assay (P49327 whole entry): as the sequence (P49327 whole entry, looked up) above

C=CCCCCC1(C)SC(=O)C(C)=C1O (centres undefined)
inhibition [1]: < 30% | MIC (Escherichia coli): > 1000 µM | inhibition [2]: inactive | inhibition [3]: inactive | MIC [4]: 1000 µM (≈ 226 µg/mL) | inhibition [5]: inactive | IC50 (wild-type apo-KasA): > 100 µM | inhibition [6]: inactive

CC[C@H](C)CC1(C)SC(O)=C(C)C1=O (some centres undefined)
inhibition [1]: inactive | MIC (Escherichia coli): > 1000 µM | inhibition [2]: inactive | inhibition [3]: inactive | MIC [4]: 500 µM (≈ 107 µg/mL) | inhibition [5]: < 30% | IC50 [7]: > 100 µM | inhibition [6]: inactive

CC1=C(O)C(C)(CC2CC2)SC1=O (centres undefined)
inhibition [1]: inactive | MIC (Escherichia coli): > 1000 µM | inhibition [2]: inactive | inhibition [3]: inactive | MIC [4]: > 1000 µM | inhibition [5]: < 30% | IC50 [7]: > 100 µM | inhibition [6]: inactive

CCC(C)C[C@@]1(C)SC(O)=C(C)C1=O (some centres undefined)
inhibition [1]: inactive | inhibition (Fatty acid synthase [8]): inactive | MIC (Escherichia coli): > 200 µM | inhibition [2]: inactive | MIC [4]: > 1000 µM | inhibition [6]: inactive

CC1=C(O)C(C)(Cc2ccc(Cl)c(Cl)c2)SC1=O (centres undefined)
inhibition [1]: inactive | MIC (Escherichia coli): > 1000 µM | inhibition [2]: inactive | inhibition [3]: < 30% | MIC [4]: 500 µM (≈ 152 µg/mL) | inhibition [5]: < 30% | IC50 [9]: > 100 µM | IC50 [7]: > 100 µM | inhibition [6]: inactive

CC(C)=CCC/C(C)=C/CC/C(C)=C/CC1(C)SC(O)=C(C)C1=O (centres undefined)
inhibition [1]: inactive | IC50 [10]: > 100 µM | MIC (Escherichia coli): 200 µM (≈ 69.7 µg/mL) | inhibition [2]: < 30% | inhibition [3]: inactive | MIC [4]: > 1000 µM | inhibition [5]: < 30% | IC50 [7]: > 100 µM | inhibition [6]: inactive

CC(C)=CCC1(C)SC(O)=C(C)C1=O (centres undefined)
inhibition [1]: < 30% | MIC (Escherichia coli): > 1000 µM | inhibition [2]: inactive | inhibition [3]: inactive | MIC [4]: > 1000 µM | inhibition [5]: inactive | IC50 (wild-type apo-KasA): > 100 µM | inhibition [6]: inactive

C=CC(C)C[C@@]1(C)SC(O)=C(C)C1=O (some centres undefined)
inhibition [1]: inactive | inhibition (Fatty acid synthase [8]): inactive | MIC (Escherichia coli): > 200 µM | inhibition [2]: inactive | MIC [4]: > 1000 µM | inhibition [6]: inactive

C=CCCCC1(C)SC(=O)C(C)=C1O (centres undefined)
inhibition [1]: < 30% | MIC (Escherichia coli): > 1000 µM | inhibition [2]: inactive | inhibition [3]: inactive | MIC [4]: > 1000 µM | inhibition [5]: inactive | IC50 (wild-type apo-KasA): > 100 µM | inhibition [6]: inactive

CCCCCCCCC1(C)SC(O)=C(C)C1=O (centres undefined)
inhibition [1]: inactive | MIC (Escherichia coli): 200 µM (≈ 51.3 µg/mL) | inhibition [2]: inactive | inhibition [3]: < 30% | MIC [4]: > 1000 µM | inhibition [5]: < 30% | IC50 [9]: > 100 µM | IC50 [7]: > 100 µM | inhibition [6]: inactive

C=C/C(C)=C/C1(C)SC(O)=C(C)C1=O (racemic) [RAC-THIOLACTOMYCIN]
MIC (Escherichia coli): 12 µM (≈ 2.52 µg/mL) | MIC [4]: 125 µM (≈ 26.3 µg/mL) | IC50 [11]: 20 µM | IC50 (Fatty acid synthase [12]): 143 µM

CC/C(C)=C/[C@@]1(C)SC(O)=C(C)C1=O
inhibition [1]: inactive | inhibition (Fatty acid synthase [8]): inactive | MIC (Escherichia coli): > 200 µM | inhibition [2]: inactive | MIC [4]: > 1000 µM | inhibition [6]: inactive

C=C/C=C/C1(C)SC(=O)C(C)=C1O (centres undefined)
IC50 [10]: 400 µM | inhibition (Fatty acid synthase [8]): inactive | MIC (Escherichia coli): 200 µM (≈ 39.3 µg/mL) | MIC [4]: 1000 µM (≈ 196 µg/mL) | IC50 (wild-type apo-KasA): 25 µM | IC50 [11]: 500 µM

CC1=C(O)C(C)(C2CCCCC2)SC1=O (centres undefined)
inhibition [1]: inactive | MIC (Escherichia coli): > 1000 µM | inhibition [2]: inactive | inhibition [3]: < 30% | MIC [4]: 1000 µM (≈ 226 µg/mL) | inhibition [5]: inactive | IC50 [9]: > 100 µM | inhibition [6]: inactive

C/C=C/C(C)=C/[C@@]1(C)SC(O)=C(C)C1=O
IC50 [10]: 400 µM | inhibition (Fatty acid synthase [8]): inactive | MIC (Escherichia coli): 200 µM (≈ 44.9 µg/mL) | MIC [4]: 1000 µM (≈ 224 µg/mL) | IC50 (wild-type apo-KasA): 50 µM | IC50 [11]: 500 µM
